From the NIST ThermoML archive (doi:10.1016/j.jct.2005.04.005)
± gives the expanded uncertainty stated by the source.

Legend:
[1] = mn = molality of the nth substance listed, in mol/kg; conditions: 101 kPa, Liquid
[2] = 298.15 K; 101 kPa; Liquid

`C1COCCOCCOCCOCCOCCO1` [1,4,7,10,13,16-hexaoxacyclooctadecane] + ClC(Cl)(Cl)Cl gave a mass density ([1]; 298.15 K, m1 = 0.0896) of 1569.55 ± 2.1 kg/m3, a speed of sound ([1]; 298.15 K, m1 = 0.0896) of 932.5 ± 1.7 m/s and a mass density ([1]; 298.15 K, m1 = 0.1666) of 1557.54 ± 2.1 kg/m3. The speed of sound ([1]; 298.15 K, m1 = 0.1666) was 941.9 ± 1.7 m/s, the mass density ([1]; 298.15 K, m1 = 0.3643) was 1529.41 ± 2 kg/m3 and the speed of sound ([1]; 298.15 K, m1 = 0.3643) was 965.4 ± 1.8 m/s. The mass density ([1]; 298.15 K, m1 = 0.5719) was 1503.47 ± 1.9 kg/m3, the speed of sound ([1]; 298.15 K, m1 = 0.5719) was 989.2 ± 1.8 m/s and the mass density ([1]; 298.15 K, m1 = 0.8185) was 1476.37 ± 1.8 kg/m3. For the same molecule, the speed of sound ([1]; 298.15 K, m1 = 0.8185) was 1015.6 ± 1.8 m/s, the mass density ([1]; 298.15 K, m1 = 1.013) was 1457.02 ± 1.8 kg/m3 and the speed of sound ([1]; 298.15 K, m1 = 1.013) was 1034.2 ± 1.8 m/s.

Molecule `ClC(Cl)(Cl)Cl` [tetrachloromethane] has a mass density [2] of 1584.35 ± 2.2 kg/m3 and a speed of sound [2] of 921.5 ± 1.7 m/s.

Work on `ClC(Cl)(Cl)Cl` [tetrachloromethane] + C1COCCOCCOCCOCCOCCO1 yielded a mass density ([1]; 298.15 K, m2 = 0) of 1584.35 ± 2.2 kg/m3 and a speed of sound ([1]; 298.15 K, m2 = 0) of 921.5 ± 1.7 m/s.

With `O` [water] + C1COCCOCCOCCOCCOCCO1 the mass density ([1]; 295.15 K, m2 = 0) was 997.773 ± 0.6 kg/m3, the mass density ([1]; 297.15 K, m2 = 0) was 997.299 ± 0.6 kg/m3 and the mass density ([1]; 299.15 K, m2 = 0) was 996.786 ± 0.6 kg/m3. The mass density ([1]; 301.15 K, m2 = 0) was 996.236 ± 0.61 kg/m3.
